From US20210290648A1, “Potentiation of B-Lactam Antibiotics and B-Lactam/B-Lactamase Inhibitor Combinations Against Multidrug and Extensively Drug-Resistant Pseudomonas Aeruginosa Using Non-Ribosomal Tobramycin-Cyclam Conjugates” (University of Manitoba, priority 2018, published 2021)
Where two headings read alike, the source gives them in different places.

Columns and labels:
PA 91433 = experiment: Checkerboard combination study / MIC; type: cell-based, Pseudomonas aeruginosa; conditions: PA 91433
PA 262 = experiment: Checkerboard combination study / MIC; type: cell-based, Pseudomonas aeruginosa
[1] = tested on: MDR PA101885-challenged larvae; experiment: Galleria mellonella infection model, efficacy; type: in vivo; conditions: after 24 h
Experimental: In vivo synergistic effects were determined using Galleria mellonella infection model, as previously described (20). Briefly, worms were purchased from The Worm Lady® Live Feeder (ON, Canada), stored in their natural habitat at 16° C., and used within 10 days of delivery. The worms (average weight of 250 mg) were used for tolerability and efficacy studies. Tolerability study was performed by injecting 10 μL of antimicrobial agents only at concentrations equivalent to 100 mg/kg or 200 mg/kg. The worms (ten in each group) were incubated at 37° C. and monitored for 96 h. For efficacy studies, the virulence and bacterial load required to kill 100% of the worms within 12-18 h (with no treatment) was first determined, which is approximately 5 CFU. Overnight grown culture of respective MDR P. aeruginosa isolate was standardized to 0.5 McFarland standard and diluted in PBS to a final concentration of 5×10^2CFU/mL. 10 μL of this solution (5 CFU) was injected into each worm and incubated for 3 h at 37° C. […] Worms treated with 10 μL PBS or high concentrations of test antibiotics served as negative and positive control, respectively. The worms were incubated at 37° C. in Petri dishes lined with filter paper and scored for survivability every 6 h for up to 48 h. This experiment was repeated to give a total of thirty worms (n=30) in each case. Survival data curves were plotted using Kaplan-Meier survival analysis.

[2] = tested on: MDR/XDR P. aeruginosa clinical isolates; experiment: MIC and checkerboard, panel of clinical isolates; type: cell-based, Pseudomonas aeruginosa; conditions: antibiotic + compound 2 (8.7 μM); resistant P. aeruginosa isolates
PA 264 = experiment: Checkerboard combination study / MIC; type: cell-based, Pseudomonas aeruginosa
[3] = tested on: Galleria mellonella larvae; experiment: Galleria mellonella tolerability study
Experimental: In vitro and in vivo discordances have been observed in antimicrobial chemotherapy, thus, therapeutic efficacy may not necessarily be reliably extrapolated based on in vitro data alone. […] Colistin (100 mg/kg), an antibiotic well known for its toxicity towards eukaryotes, served as a positive control for this experiment while PBS served as negative control. […] Survivability was scored for a total of 4 days.
In vivo larvae-infection model. In vivo synergistic effects were determined using Galleria mellonella infection model, as previously described (20). Briefly, worms were purchased from The Worm Lady® Live Feeder (ON, Canada), stored in their natural habitat at 16° C., and used within 10 days of delivery. The worms (average weight of 250 mg) were used for tolerability and efficacy studies. Tolerability study was performed by injecting 10 μL of antimicrobial agents only at concentrations equivalent to 100 mg/kg or 200 mg/kg. The worms (ten in each group) were incubated at 37° C. and monitored for 96 h. […] Overnight grown culture of respective MDR P. aeruginosa isolate was standardized to 0.5 McFarland standard and diluted in PBS to a final concentration of […]. 10 μL of this solution (5 CFU) was injected into each worm and incubated for 3 h at 37° C. […] Worms treated with 10 μL PBS or high concentrations of test antibiotics served as negative and positive control, respectively. The worms were incubated at 37° C. in Petri dishes lined with filter paper and scored for survivability every 6 h for up to 48 h. This experiment was repeated to give a total of thirty worms (n=30) in each case. Survival data curves were plotted using Kaplan-Meier survival analysis.

PA 101885 = experiment: Checkerboard combination study / MIC; type: cell-based, Pseudomonas aeruginosa
PA 259 = experiment: Checkerboard combination study / MIC; type: cell-based, Pseudomonas aeruginosa
PA 260 = experiment: Checkerboard combination study / MIC; type: cell-based, Pseudomonas aeruginosa
PA 114228 = experiment: Checkerboard combination study / MIC; type: cell-based, Pseudomonas aeruginosa
WT P. aeruginosa PAO1 = experiment: Checkerboard combination study / MIC; type: cell-based, Pseudomonas aeruginosa; conditions: for MIC: Pseudomonas aeruginosa
[4] = MIC of antibiotic combined with compound 2

## C[C@@H](O)[C@H]1C(=O)N2C(C(=O)O)=C(S[C@@H]3CN[C@H](C(=O)N(C)C)C3)[C@H](C)[C@H]12 [Meropenem]
PA 91433; [4]
  MICCombination (antibiotic): 0.25 µg/mL
PA 91433; antibiotic + compound 2
  FICI: <0.03
PA 91433; antibiotic alone
  MICAntibiotic: 16 µg/mL
PA 91433; with compound 2
  FICAntibiotic: 0.016
PA 262; [4]
  MICCombination (antibiotic): 2 µg/mL
PA 262; antibiotic + compound 2
  FICI: <0.13
PA 262; antibiotic alone
  MICAntibiotic: 32 µg/mL
PA 262; with compound 2
  FICAntibiotic: 0.063
[1]; aztreonam […], meropenem 37.5 mg/kg, compound 2 100 mg/kg
  mortality of larvae, monotherapy: 100%
[1]; meropenem 37.5 mg/kg single dose
  survival of larvae: 0%
[1]; meropenem 50 mg/kg single dose
  survival of larvae: 80%
[2]
  resistant isolates reaching CLSI clinical breakpoint: eight out of nine
PA 264; [4]
  MICCombination (antibiotic): 2 µg/mL
PA 264; antibiotic + compound 2
  FICI: <0.05
PA 264; antibiotic alone
  MICAntibiotic: 64 µg/mL
PA 264; with compound 2
  FICAntibiotic: 0.0313
[3]; 100 mg/kg and 200 mg/kg injected alone, after 48 h
  survival of larvae: 100%
[3]; Galleria mellonella, in vivo, 96 h
  dose tolerated by larvae: up to 200 mg/kg
PA 101885; [4]
  MICCombination (antibiotic): 0.5 µg/mL
PA 101885; antibiotic + compound 2
  FICI: <0.16
PA 101885; antibiotic alone
  MICAntibiotic: 4 µg/mL
PA 101885; with compound 2
  FICAntibiotic: 0.125
PA 259; [4]
  MICCombination (antibiotic): 256 µg/mL
PA 259; antibiotic + compound 2
  FICI: <0.31
PA 259; antibiotic alone
  MICAntibiotic: 1024 µg/mL
PA 259; with compound 2
  FICAntibiotic: 0.250
PA 260; [4]
  MICCombination (antibiotic): 1 µg/mL
PA 260; antibiotic + compound 2
  FICI: <0.16
PA 260; antibiotic alone
  MICAntibiotic: 8 µg/mL
PA 260; with compound 2
  FICAntibiotic: 0.125
PA 114228; [4]
  MICCombination (antibiotic): 2 µg/mL
PA 114228; antibiotic + compound 2
  FICI: <0.28
PA 114228; antibiotic alone
  MICAntibiotic: 8 µg/mL
PA 114228; with compound 2
  FICAntibiotic: 0.250
WT P. aeruginosa PAO1; + compound 2 ≤8.7 μM, PAO1
  MIC of antibiotic + Compound 2 in PAO1: 0.25 µg/mL
  fold change of MIC + Compound 2 in PAO1: 4
WT P. aeruginosa PAO1; PAO1, 18 h, antibiotic alone, WT PAO1 (Table 2), read-out: MIC alone
  MIC: 1 µg/mL
WT P. aeruginosa PAO1; PAO1, time-kill study text and FIG. 7 legend, read-out: MIC against WT PAO1
  MIC: 1 µg/mL
WT P. aeruginosa PAO1; antibiotic + compound 1, WT PAO1
  FICI in the presence of ≤10 μM of 1: 0.25 (0.25)
WT P. aeruginosa PAO1; antibiotic + compound 1 ≤10 μM, WT PAO1
  MIC of Antibiotics in the presence of ≤10 μM of 1: 0.25 (0.25) μg/ml
WT P. aeruginosa PAO1; antibiotic + compound 2, WT PAO1
  FICI in the presence of ≤10 μM of 2: 0.26
WT P. aeruginosa PAO1; antibiotic + compound 2 ≤10 μM, WT PAO1
  MIC of Antibiotics in the presence of ≤10 μM of 2: 0.25 µg/mL
WT P. aeruginosa PAO1; antibiotic + compound 3, WT PAO1
  FICI in the presence of ≤10 μM of 3: 0.50
WT P. aeruginosa PAO1; antibiotic + compound 3 ≤10 μM, WT PAO1
  MIC of Antibiotics in the presence of ≤10 μM of 3: 0.5 µg/mL
WT P. aeruginosa PAO1; antibiotic alone, PAO1 wild-type (Table 4)
  MIC of antibiotic alone in PAO1: 1 µg/mL
